The text below walks through data of ChEMBL document CHEMBL3286225, “Novel carboline derivatives as potent antifungal lead compounds: design, synthesis, and biological evaluation” (ACS Med Chem Lett, 2014).

In brackets after ≈: the same amount, converted by molar mass. Where only a bound is given, the exact number is not on record here.

The term MIC80 denotes an inhibitory concentration at the 80% level, which refers to growth in some studies and to a panel of isolates in others. High values mean weaker potency, low ones greater potency.

Common to all, as to format: functional
The subject of one assay is Candida tropicalis. The assay can be described thus: Antifungal activity against Candida tropicalis after 7 days by serial dilution method. The note with it: 168 h.
In the next assay the test system is Pichia kudriavzevii. The assay can be described thus: Antifungal activity against Candida krusei 0710397 after 7 days by serial dilution method. Conditions: Pichia kudriavzevii, 0710397, 168 h.
Another assay concerns Candida albicans. The assay can be described thus: Antifungal activity against fluconazole-sensitive Candida albicans SC5314 after 24 hrs by serial dilution method. The note with it: SC5314, 24 h.
In another assay the test system is Candida parapsilosis. The assay can be described thus: Antifungal activity against Candida parapsilosis ATCC 22019 after 24 hrs by serial dilution method. Conditions: Lodderomyces parapsilosis, ATCC 22019, 24 h.
Another assay concerns Cryptococcus neoformans. The assay can be described thus: Antifungal activity against Cryptococcus neoformans 32609 after 72 hrs by serial dilution method. Conditions: Cryptococcus neoformans, 32609, 72 h.
The next assay relates to Trichophyton rubrum. The assay can be described thus: Antifungal activity against Trichophyton rubrum Cmccftla after 7 days by serial dilution method. Conditions: 168 h.
Another assay deals with Nannizzia gypsea. The assay can be described thus: Antifungal activity against Microsporum gypseum Cmccfmza after 7 days by serial dilution method. Conditions: 168 h.

As to `Cc1cccc(OCCCn2c3c(c4cc(F)ccc42)CNCC3)c1`, the MIC80 amounted to 16 µg/mL (≈ 47.3 µM) with Candida tropicalis; 16 µg/mL (≈ 47.3 µM) against Pichia kudriavzevii; 8 µg/mL (≈ 23.6 µM) against Candida albicans; 4 µg/mL (≈ 11.8 µM) with Candida parapsilosis; 8 µg/mL (≈ 23.6 µM) in the assay with Cryptococcus neoformans; 4 µg/mL (≈ 11.8 µM) against Trichophyton rubrum. The same molecule gave an MIC80 against Nannizzia gypsea of 4 µg/mL (≈ 11.8 µM).

As for `Fc1ccc(OCCCn2c3c(c4cc(F)ccc42)CNCC3)cc1`, the MIC80 with Candida tropicalis worked out at 16 µg/mL (≈ 46.7 µM); against Pichia kudriavzevii it was 4 µg/mL (≈ 11.7 µM); with Candida albicans it was 8 µg/mL (≈ 23.4 µM); in the assay on Candida parapsilosis, 16 µg/mL (≈ 46.7 µM); in the assay on Cryptococcus neoformans it was 8 µg/mL (≈ 23.4 µM); against Trichophyton rubrum, 8 µg/mL (≈ 23.4 µM). Further, in the assay with Nannizzia gypsea, the MIC80 amounted to 8 µg/mL (≈ 23.4 µM).

With `Fc1ccc(OCCCCn2c3c(c4cc(F)ccc42)CNCC3)cc1`, the MIC80 against Candida tropicalis is 16 µg/mL (≈ 44.9 µM); with Pichia kudriavzevii, 4 µg/mL (≈ 11.2 µM); against Candida albicans, 16 µg/mL (≈ 44.9 µM); with Candida parapsilosis, 16 µg/mL (≈ 44.9 µM); against Cryptococcus neoformans it was 16 µg/mL (≈ 44.9 µM); in the assay with Trichophyton rubrum it was 16 µg/mL (≈ 44.9 µM). Further, the MIC80 in the assay on Nannizzia gypsea amounted to 8 µg/mL (≈ 22.4 µM).

For the molecule `Fc1ccc2c(c1)c1c(n2CCCOc2c(F)cccc2F)CCNC1`, the MIC80 amounted to 16 µg/mL (≈ 44.4 µM) in the assay on Candida tropicalis; 4 µg/mL (≈ 11.1 µM) against Pichia kudriavzevii; 4 µg/mL (≈ 11.1 µM) with Candida albicans; 64 µg/mL (≈ 178 µM) in the assay with Candida parapsilosis; 8 µg/mL (≈ 22.2 µM) against Cryptococcus neoformans; 2 µg/mL (≈ 5.55 µM) in the assay on Trichophyton rubrum. The same molecule showed an MIC80 in the assay on Nannizzia gypsea of 1 µg/mL (≈ 2.77 µM).

On to `Fc1ccc(OCCCn2c3c(c4cc(Br)ccc42)CNCC3)cc1`, for which the MIC80 in the assay with Candida tropicalis turned out to be 16 µg/mL (≈ 39.7 µM); in the assay on Pichia kudriavzevii, 4 µg/mL (≈ 9.92 µM); with Candida albicans, 4 µg/mL (≈ 9.92 µM); in the assay on Candida parapsilosis, 4 µg/mL (≈ 9.92 µM); with Cryptococcus neoformans it was 4 µg/mL (≈ 9.92 µM); with Trichophyton rubrum, 8 µg/mL (≈ 19.8 µM). The molecule also came in with an MIC80 with Nannizzia gypsea of 4 µg/mL (≈ 9.92 µM).

For `Clc1ccc2c(c1)c1c(n2CCCOc2cccc(Br)c2)CCNC1`, the MIC80 in the assay with Candida tropicalis stood at 16 µg/mL (≈ 38.1 µM); in the assay with Pichia kudriavzevii, 4 µg/mL (≈ 9.53 µM); with Candida albicans, 8 µg/mL (≈ 19.1 µM); in the assay on Candida parapsilosis, 16 µg/mL (≈ 38.1 µM); in the assay on Cryptococcus neoformans, 4 µg/mL (≈ 9.53 µM); in the assay on Trichophyton rubrum, 16 µg/mL (≈ 38.1 µM). Further, the MIC80 in the assay with Nannizzia gypsea was 16 µg/mL (≈ 38.1 µM).

`Fc1ccc2c(c1)c1c(n2CCCOc2ccc(Br)cc2)CCNC1`: the MIC80 worked out at 16 µg/mL (≈ 39.7 µM) in the assay with Candida tropicalis; 4 µg/mL (≈ 9.92 µM) in the assay on Pichia kudriavzevii; 8 µg/mL (≈ 19.8 µM) with Candida albicans; 64 µg/mL (≈ 159 µM) in the assay on Candida parapsilosis; 4 µg/mL (≈ 9.92 µM) in the assay with Cryptococcus neoformans; 8 µg/mL (≈ 19.8 µM) with Trichophyton rubrum. In the assay with Nannizzia gypsea, this molecule registered an MIC80 of 2 µg/mL (≈ 4.96 µM).

For the molecule `Fc1cc(F)c(OCCCn2c3c(c4cc(F)ccc42)CNCC3)c(F)c1`, the MIC80 was 16 µg/mL (≈ 42.3 µM) against Candida tropicalis; 4 µg/mL (≈ 10.6 µM) in the assay on Pichia kudriavzevii; 8 µg/mL (≈ 21.1 µM) against Candida albicans; 4 µg/mL (≈ 10.6 µM) in the assay on Candida parapsilosis; 4 µg/mL (≈ 10.6 µM) in the assay on Cryptococcus neoformans; 4 µg/mL (≈ 10.6 µM) with Trichophyton rubrum. In the assay on Nannizzia gypsea, this molecule returned an MIC80 of 4 µg/mL (≈ 10.6 µM).

For the molecule `Cc1ccc(OCCCn2c3c(c4cc(F)ccc42)CNCC3)cc1`, the MIC80 with Candida tropicalis worked out at 16 µg/mL (≈ 47.3 µM); in the assay with Pichia kudriavzevii it was 4 µg/mL (≈ 11.8 µM); in the assay on Candida albicans, 8 µg/mL (≈ 23.6 µM); in the assay with Candida parapsilosis, 4 µg/mL (≈ 11.8 µM); against Cryptococcus neoformans, 4 µg/mL (≈ 11.8 µM); with Trichophyton rubrum, 2 µg/mL (≈ 5.91 µM). This molecule also displayed an MIC80 in the assay on Nannizzia gypsea of 4 µg/mL (≈ 11.8 µM).

With `Fc1ccc(F)c(OCCCn2c3c(c4cc(F)ccc42)CNCC3)c1`, the MIC80 with Candida tropicalis was determined as 16 µg/mL (≈ 44.4 µM); against Pichia kudriavzevii it was 4 µg/mL (≈ 11.1 µM); against Candida albicans it was 4 µg/mL (≈ 11.1 µM); with Candida parapsilosis it was 64 µg/mL (≈ 178 µM); in the assay with Cryptococcus neoformans, 16 µg/mL (≈ 44.4 µM); against Trichophyton rubrum, 8 µg/mL (≈ 22.2 µM). In the assay on Nannizzia gypsea, this molecule returned an MIC80 of 2 µg/mL (≈ 5.55 µM).

Regarding `Fc1ccc(NCCCn2c3c(c4cc(F)ccc42)CNCC3)cc1`, the MIC80 in the assay on Candida tropicalis turned out to be 64 µg/mL (≈ 187 µM); in the assay on Pichia kudriavzevii it was 16 µg/mL (≈ 46.9 µM); against Candida albicans it was 8 µg/mL (≈ 23.4 µM); with Candida parapsilosis, 16 µg/mL (≈ 46.9 µM); in the assay with Cryptococcus neoformans it was 32 µg/mL (≈ 93.7 µM); with Trichophyton rubrum it was 32 µg/mL (≈ 93.7 µM). In addition, the MIC80 against Nannizzia gypsea turned out to be 16 µg/mL (≈ 46.9 µM).

Turning to `Fc1ccc2c(c1)c1c(n2CCCOc2ccccc2Cl)CCNC1`, the MIC80 amounted to 64 µg/mL (≈ 178 µM) in the assay with Candida tropicalis; 64 µg/mL (≈ 178 µM) in the assay with Pichia kudriavzevii; 32 µg/mL (≈ 89.2 µM) in the assay on Candida albicans; 64 µg/mL (≈ 178 µM) against Candida parapsilosis; 16 µg/mL (≈ 44.6 µM) against Cryptococcus neoformans; 32 µg/mL (≈ 89.2 µM) in the assay on Trichophyton rubrum. In the assay with Nannizzia gypsea, this molecule yielded an MIC80 of 16 µg/mL (≈ 44.6 µM).

As to `COc1ccc(OCCCn2c3c(c4cc(F)ccc42)CNCC3)cc1`, the MIC80 with Candida tropicalis was above 64 µg/mL; with Pichia kudriavzevii, 16 µg/mL (≈ 45.1 µM); against Candida albicans, 8 µg/mL (≈ 22.6 µM); against Candida parapsilosis, above 64 µg/mL; with Cryptococcus neoformans it was 8 µg/mL (≈ 22.6 µM); in the assay on Trichophyton rubrum, 8 µg/mL (≈ 22.6 µM). The MIC80 against Nannizzia gypsea came out at 4 µg/mL (≈ 11.3 µM).

Consider `Cc1ccccc1OCCCn1c2c(c3cc(F)ccc31)CNCC2`, for which the MIC80 came out at 64 µg/mL (≈ 189 µM) with Candida tropicalis; 16 µg/mL (≈ 47.3 µM) with Pichia kudriavzevii; 4 µg/mL (≈ 11.8 µM) with Candida albicans; 16 µg/mL (≈ 47.3 µM) against Candida parapsilosis; 4 µg/mL (≈ 11.8 µM) in the assay with Cryptococcus neoformans; 4 µg/mL (≈ 11.8 µM) with Trichophyton rubrum. The molecule further displayed an MIC80 against Nannizzia gypsea of 4 µg/mL (≈ 11.8 µM).

Turning to `Fc1ccc2c(c1)c1c(n2CCCOc2ccc(F)c(F)c2F)CCNC1`, the MIC80 in the assay with Candida tropicalis worked out at 4 µg/mL (≈ 10.6 µM); with Pichia kudriavzevii it was 4 µg/mL (≈ 10.6 µM); against Candida albicans, 8 µg/mL (≈ 21.1 µM); against Candida parapsilosis, 64 µg/mL (≈ 169 µM); against Cryptococcus neoformans, 4 µg/mL (≈ 10.6 µM); against Trichophyton rubrum, 8 µg/mL (≈ 21.1 µM). The MIC80 in the assay with Nannizzia gypsea was 4 µg/mL (≈ 10.6 µM).
